Results as given in patent US20190008919A1, “ETA RECEPTOR ANTAGONISTS AND METHODS OF USING THE SAME TO TREAT CARDIOVASCULAR DISORDERS AND DISEASE” (priority 2017, published 2019).
Non-standard residues stand in square brackets, D forms with d. Residues, ends and D or L forms follow the SMILES beside them.

Key:
Body weight = format: in vivo, Wistar rats; settings: Exp rats, 12 weeks aortic NCR then BQ-123 1 mg/kg/day continuous infusion 3 weeks; mean ± SEM
Procedure: (§1) Twenty seven Wistar rats at age of 17-18 weeks were randomly divided into three groups. Group 1 (n=10) underwent aortic NCR for 12 weeks and was terminated at the end of 12 weeks. Group 2 (n=9) underwent aortic NCR for 12 weeks, then received continuous BQ-123 infusion for 3 weeks. The animals were terminated at the end of 15 weeks. Group 3 (n=8) was used as the sham-operated control for groups 1 and 2. All animal experiments were performed in accordance with national and local ethical guidelines, including the Institute of Laboratory Animal Research guidelines, Public Health Service policy, the Animal Welfare Act, as approved by Institutional Animal Care and Use Committee at California Medical Innovations Institute, San Diego.
(§2) Rats in group 2 received continuous BQ-123 infusion (1 mg/kg/day) for 21 days through Osmotic minipump implantation after 12 weeks of aortic NCR. BQ-123 (Peptides International Inc., Louisville, Ky.) was dissolved in saline containing 0.5% dimethyl sulphoxide (DMSO). The Osmotic minipump (model 2002, Durect Corporation, CA) was subcutaneously implanted on the side of abdomen in rats. Sham rats received continuous saline infusion through Osmotic minipumps for 21 days.

[1] = system: peripheral small arteries; test: Endothelial function of peripheral small arteries (isovolumic myograph, ex vivo) after in vivo treatment; design: species or system Wistar rats
Procedure: as §2
(§3) After measurement of pressure and flow from a branch of femoral artery, water-resistant carbon particles were used to mark the same vessel segment (400˜500 μm in diameter) to measure axial changes as described in a publication by Guo et al. The external geometry of the arterial segment was photographed to obtain the outer diameter and in vivo axial length with the aid of a dissecting microscope. The arterial segment was than harvested for endothelial function and mechanical testing and histological analysis. The heart was harvested to calculate the wet weight.
An isovolumic myograph recently developed by our group was used to evaluate the endothelium-dependent vasorelaxation. The small peripheral arterial segment was cannulated on both ends in a physiological bath with HEPES physiologic saline solution (HEPES-PSS, concentration in mmol/l: 142 NaCl, 4.7 KCl, 2.7 sodium HEPES, 3 HEPES acid, 0.15 NaHPO4, 1.17 MgSO4, 2.79 CaCl^2, and 5.5 glucose, solution gassed by 95% O2 plus 5% CO2) and stretched to in situ length. The pressure and external diameter were measured with a pressure transducer (Mikro-Tip SPR-524; Millar Instruments) and a digital diameter tracking (DiamTrak v3+; Australia), respectively. The vessel segment was pre-constricted with phenylephrine (PE) by a series of doses (10^−10 to 10^−5 mol/L in the PSS), and then relaxed with acetylcholine (ACh) by a series of doses: 10^−10 to 10^−5 mol/L. The endothelium-independent relaxation to sodium nitroprusside (SNP, 10^−5 mol/L) was measured to verify the sensitivity of vascular smooth muscle to NO. The overall contractility of vessel was tested with potassium chloride (KCl) at 60 mmol/L. Contraction was expressed as percentage of the response to KCl. Relaxation was expressed as percentage of pre-contraction to PE.
Results were shown as mean±standard error of mean (mean±SEM). The significance of the differences between two groups was evaluated by either t-test or One-way ANOVA. For each dose-response curve to agents, the maximum effect (Emax) and bolus dose that produced half-maximal relaxation or contraction (expressed as pED50) were obtained by fitting the experimental data with a sigmoidal dose response curve. A least-squares fitting function, FindFit (Wolfram Mathematica software, Illinois, USA) was used. Significant differences among the three groups for dose-dependent curves (FIGS. 10B and 7A) were determined by Two-way ANOVA (SigmaStat, California, USA). The results were considered statistically significant when P<0.05 (2-tailed).

[2] = system: peripheral small arteries; test: Elastin and collagen contents by multiphoton microscopy; format: in vivo, Wistar rats
Procedure: as §2
The elastin and collagen in small peripheral arteries were imaged by using a Multiphoton microscope (MPM) as described by Huan et al. Briefly, the arterial segment was fixed with 4% paraformaldehyde in phosphate buffer for 4 hours. The vessel was then transferred to a cryomold containing OCT embedding medium, and frozen in liquid nitrogen. Frozen transverse sections (7 μm) were cut onto glass slide and visualized by the MPM with a combined SHG/TPEF setup (Zeiss LSM 710 NLO). Serial optical sections were simultaneously captured by using the 520 nm line for elastin and the 415 nm line for collagen. All the images were taken under identical conditions of laser intensity, brightness, and contrast. Fluorescence intensity values were used as estimates of elastin and collagen concentration and quantitatively analyzed by Image J.

ET-1 = test: Serum ET-1 level (ELISA); format: in vivo, Wistar rats; settings: FIG. 6; not significantly different from the sham
Procedure: as §2
Blood samples were collected in ethylenediaminetetraacetic acid (EDTA) tubes for all experimental rats. After centrifugation at 5000 rpm and 4° C. for 15 min, serum was immediately separated and stored at −80° C. until analysis. The circulating level of ET-1 in serum was measured by ELISA kit (R&D system, MN).

left ventricle = test: Heart and left ventricle weights; format: in vivo, Wistar rats; settings: compared to sham
Procedure: as §2, §3

[3] = system: aortic stiffening-induced hypertension rat model; test: Pressure, pulse wave velocity and peripheral flow measurement in aortic NCR (aortic stiffening-induced hypertension) rats; format: in vivo, Wistar rats
Procedure: as §1
Animals were anesthetized with 1-2% isoflurane by air inhalation. A pressure catheter (Mikro-tip SPR-407, Millar Instruments, Houston, Tex.,) was inserted in the aortic arch (proximal site) via the right carotid artery. Heparin (200 U/ml) was used to prevent blood clots in the vessels. Another pressure transducer (Mikro-tip SPR-671) was advanced retrogradely into the abdominal aorta (distal site) via the right femoral artery. The central and peripheral aortic blood pressure waveforms were recorded from these two locations simultaneously during the procedure. A branch (400˜500 μm in diameter) of the left femoral artery was exposed carefully. A flow probe (0.5 mm ID) connected to a flow meter (Transonic systems, Ithaca, N.Y.) was then placed around it and local flow rate was recorded for at least 30 minutes. Following the measurement of blood pressure, the small cuts for cannulation on the carotid and femoral arteries were repaired by 11-0 sutures to restore flow.
A laparotomy (about 3.0 cm) was performed. The distal abdominal aorta between renal and common iliac artery was carefully exposed and tissue glue (cyanoacrylate formulation, Dermabond, Ethicon, NJ) was coated over a length of the aorta. After allowing 5-10 minutes for the glue to harden, a stiff coating formed and covered the anterior and bilateral sides of the aorta with an axial length of 3.0-3.5 cm. The sham group underwent an identical surgical procedure, but without application of glue on the aorta (i.e., the same amount of glue was left near the aorta area with no direct contact with the aorta).
as §2
Pulse wave velocity (PWV) calculation is based on the difference in arrival times of the pressure wave at the proximal (aorta arch) and distal (abdominal aorta) locations. Since the pressure transducer is visible on radiographs, the propagation distance between the proximal and distal site was obtained by imaging the animal with the two transducers implantation under an X-ray machine (Philips Fluoroscopy System, FIG. 1). PWV (m/s) was calculated by dividing the propagation distance by the difference among the two arrival times (transit time).
The reverse to forward flow ratio (indicative of the extent of peripheral flow reversal) in peripheral small artery was calculated as: R/F ratio=Qrev/Qfwd×100(%), where Qrev and Qfwd are the reverse and forward peak flow rate, respectively (as shown in FIG. 3A). […]

[4] = system: peripheral small arteries; test: Mechanical tests and morphometry of peripheral small arteries; format: in vivo, Wistar rats
Procedure: as §2, §3
The peripheral arterial segment was cannulated on both ends and fully relaxed in Ca^2+ free HEPES-PSS. The arterial segment was preconditioned with five cyclic changes in pressure from 0 to 140 mmHg. The pressure was then increased in 20 mmHg step increments from 20 to 140 mmHg in a staircase manner. The passive pressure-diameter relation was recorded. After the mechanical testing, the vessel segment was cut transversely into three or four rings. Each ring was photographed in the no-load state and then cut radially by a scissor to reveal the zero-stress state. The cross section of each sector was photographed 30 minutes after the radial cut (details in Guo et al.). The morphological measurements of the in vitro axial length, inner and outer circumference, wall thickness (WT), and area in the no-load and zero-stress state were made from the images using a morphometric analysis system (SigmaScan).
The loaded inner radius of vessel was determined from the incompressibility assumption. The incompressibility condition for a cylindrical vessel can be expressed as:
where ro and ri are the outer and inner radii at the loaded state, respectively. λZ=l/lo is the stretch ratio in the axial direction where l and lo are the vessel length in the loaded and no-load state, respectively and Ao is the wall area in the no-load state. The wall thickness, WT at the loaded state was computed as the difference between the outer and inner radius of the vessel at various pressures as:
The volume compliance (CV) of the artery was determined by the slope of the pressure-volume relationship; i.e., CV=ΔV/ΔP. […] The normalized CSA compliance (CCSA) was determined similarly as CCSA=ΔCSA/(ΔP·CSA) at the physiological pressure as described in our previous publication.

[5] = Exp rats, 12 weeks aortic NCR then BQ-123 1 mg/kg/day infusion 3 weeks, mean ± SEM
[6] = branch of femoral artery, Exp rats, 12 weeks aortic NCR then BQ-123 infusion 3 weeks, mean ± SEM

In the case of `CC(C)C[C@@H]1NC(=O)[C@@H](C(C)C)NC(=O)[C@@H]2CCCN2C(=O)[C@@H](CC(=O)O)NC(=O)[C@@H](Cc2c[nH]c3ccccc23)NC1=O` [BQ-123, 2-[(3R,6R,9S,12R,15S)-6-(1H-indol-3-ylmethyl)-9-(2-methylpropyl)-2,5,8,11,14-pentaoxo-12-propan-2-yl-1,4,7,10,13-pentazabicyclo[13.3.0]octadecan-3-yl]acetic acid] (cyclo(L[dW][dD]P[dV])), the “Body Weight” value (Body weight) is reported as 641.3 ± 18.9 g, the “endothelium-dependent vasodilation in response to acetylcholine (dose-response curve)” value ([1]; FIG. 7A, vs aortic NCR group, p<0.05, 2-way ANOVA) is reported as “totally recovered” and the “contractions to phenylephrine (PE)” value ([1]; FIG. 10B, vs sham and aortic NCR) is reported as “did not affect this response”. The “vascular contraction to potassium chloride (KCl)” value ([1]; KCl 60 mmol/L, among the 3 groups, FIG. 10C) was “no significant difference”, the “maximal endothelium-independent relaxation to sodium nitroprusside (SNP)” value ([1]; SNP 10^−5 mol/L, arteries of BQ-123 treated NCR rats (sham 96%, NCR 74%)) was 98% and the Emax ([1]; acetylcholine concentration-response curve, PE pre-contracted peripheral small arteries of BQ-123 treated NCR rats, mean ± SEM) was 88.5 ± 7.9%. For the same compound, the “Phenylephrine Emax (%)” value ([1]; phenylephrine concentration-response curve, peripheral small arteries of BQ-123 treated NCR rats, mean ± SEM) was 72.4 ± 6.3 negative log mol/L, the “total collagen content of peripheral arteries” value ([2]; FIG. 5B, after 3 weeks BQ-123) was “returned to normal levels” and the “elastin to collagen ratio” value ([2]; FIG. 5C, after 3 weeks of treatment) was “restored to normal levels”. The total elastin contents ([2]; between NCR, BQ-123 treatment and sham groups) was “No difference”, the “serum ET-1 level” value (ET-1) was “restored to pre-intervention level” and the “wet weights of the hearts” value (left ventricle) was “did not change”. The “LV weight/heart weight ratio (LV/HW)” value (left ventricle; p<0.05, FIG. 2) was “significant increase”, the “Central aortic blood pressure, Diastolic pressure” value [3, 5] was 94.8 ± 3.2 mmHg and the “Central aortic blood pressure, Mean pressure” value [3, 5] was 115.0 ± 3.8 mmHg. The “Central aortic blood pressure, Pulse pressure” value [3, 5] was 38.5 ± 1.8 mmHg, the “Central aortic blood pressure, Systolic pressure” value [3, 5] was 133.3 ± 3.9 mmHg and the Heart rate [3, 5] was 353.0 ± 6.9 beats/min. The PWV [3, 5] was 4.1 ± 0.3 m/s, the “Peripheral aortic blood pressure, Diastolic pressure” value [3, 5] was 87.6 ± 3.5 mmHg and the “Peripheral aortic blood pressure, Mean pressure” value [3, 5] was 108.0 ± 4.5 mmHg. For the same compound, the “Peripheral aortic blood pressure, Pulse pressure” value [3, 5] was 45.8 ± 2.1 mmHg, the “Peripheral aortic blood pressure, Systolic pressure” value [3, 5] was 133.4 ± 5.1 mmHg and the “wall shear stress (WSS) in peripheral small arteries” value ([3]; FIG. 3B, after 3 weeks BQ-123 in NCR rats) was “returned to the sham level”. The Reverse/forward flow ratio ([3]; Qrev/Qfwd×100, Exp rats, 12 weeks aortic NCR then BQ-123 infusion 3 weeks, mean ± SEM) was 7.6 ± 1.4 %, the “Peripheral flow rate, Forward flow” value [3, 6] was 0.34 ± 0.04 mL/min and the “Peripheral flow rate, Mean flow” value [3, 6] was 0.099 ± 0.008 mL/min. For the same compound, the “Peripheral flow rate, Reverse flow” value [3, 6] was -0.026 ± 0.007 mL/min, the “wall thickness (WT, intima-media thickness)” value ([4]; compared to NCR group, not statistically significant, FIG. 4A) was “downward trend” and the “wall thickness-to-radius (WTTR) ratio” value ([4]; compared to NCR group, not statistically significant, FIG. 4B) was “downward trend”. For the same compound, the “normalized CSA compliance” value ([4]; compared with NCR group p=0.02, not fully restored vs sham (p=0.06), FIG. 4C) was “significantly increased” and the “outer diameter of the peripheral small arteries” value ([4]; sham, NCR and BQ-123 groups, FIG. 10A) was “no changes”.
